These are literature values, as cited in patent publication US20040034083A1, “Combination therapy for the treatment of Parkinson's disease with cyclooxygenase-2 (COX2) inhibitor(s)” (priority 2002, published 2004).

The conditions of data set [1]: levodopa/carbidopa therapy of PD.

As for `N[C@@H](Cc1ccc(O)c(O)c1)C(=O)O` [levodopa], for the setting “levodopa alone administered orally”, the “fraction of levodopa that reaches the brain” value is listed as “about 1%”. Under “oral administration, without carbidopa”, the “fraction of orally administered levodopa metabolized by decarboxylase (then unable to cross the BBB)” value is “Up to 99%”. In data set [1], the “duration of effectiveness after initiation of therapy” value is reported as “about 5 years”.
